Measurements taken from patent US11319310B2, “Heterocyclyl-substituted oxadiazolopyridine derivatives for use as ghrelin O-acyl transferase (GOAT) inhibitors” (Boehringer Ingelheim International GmbH, priority 2018, dated 2022).

Each compound was assayed against T1, human GOAT (Homo sapiens, UniProt Q96T53) (assay: Determination of hGOAT activity in HEK293 cells after incubation with test compound (acyl-ghrelin ELISA)). Conditions: HEK293 cells stably transfected with preproghrelin and human GOAT; octanoate-BSA 100 μM, 5 hours incubation; acyl-ghrelin in medium by ELISA; 8 compound concentrations.
T1 construct: expressed in transfected cells; host or cells: HEK293 (Hek293 hGOAT/PPGhrl Clone #1B8), stably transfected
T1 sequence (Q96T53 1-435): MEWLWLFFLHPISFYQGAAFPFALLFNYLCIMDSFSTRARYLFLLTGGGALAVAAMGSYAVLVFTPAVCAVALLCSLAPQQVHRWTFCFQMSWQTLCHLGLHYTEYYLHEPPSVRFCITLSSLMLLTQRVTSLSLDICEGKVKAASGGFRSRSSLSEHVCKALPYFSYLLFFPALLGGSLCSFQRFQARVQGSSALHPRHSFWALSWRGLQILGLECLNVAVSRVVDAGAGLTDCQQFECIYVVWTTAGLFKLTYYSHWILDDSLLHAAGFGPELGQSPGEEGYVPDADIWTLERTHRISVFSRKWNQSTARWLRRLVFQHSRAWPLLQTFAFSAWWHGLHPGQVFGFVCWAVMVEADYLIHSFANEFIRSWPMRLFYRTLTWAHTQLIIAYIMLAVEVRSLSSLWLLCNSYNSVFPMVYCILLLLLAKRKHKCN
Type: cell-based
Description: Determination of hGOAT Activity in HEK293 Cells after Incubation with Test Compound
HEK293 cells stably transfected with two expression vectors, one coding for preproghrelin cDNA and a second for the expression of human GOATcDNA are used as a cellular model. After feeding the cells with octanoic acid for 5 hours, acyl-ghrelin is measured in cell culture medium by an ELISA procedure.
Cellline: Hek293 hGOAT/PPGhrl Clone #1B8 Sodium octanoate, Sigma, Cat.-No. C5038
BD Poly-D-Lysin 384-well Plates, black-clear polystyrene BD Bioscience Cat.-No. […] ELISA human acylated Ghrelin Kit purchased from Bertin Pharman (detailed composition of buffers e.g. wash-puffer, ELISA buffer not known) All further reagents used were of highest analytical grade available.
Cells are plated with a density of 5000 cells/well in 384-well poly-D-lysin plates and incubated for 1 day at 37° C., 5% CO2 in DMEM medium, 10% FCS, 1×NEAA, Puromycin (0.5 μg/ml) and G418 (1 mg/ml). Then the medium is changed to a identical medium without FCS and containing Octanoate-BSA (final concentration 100 μM each) and compound in DMSO (final DMSO concentration 0.3%). After incubation for 5 hours acylghrelin in the medium is measured by ELISA.
The medium sample is diluted 1:25 in Elisa buffer, a 25 μl aliquot is transferred to a 384-well ELISA plate previously washed 4 times with 100 μL wash buffer, and 25 μl tracer-solution is added. After incubation overnight (˜20 h) at 4° C. temperature the plate is washed 4 times with 100 μl wash-buffer per well. Finally 50 μl Ellman's reagent is added to each well and the plate is incubated in the dark for 20 minutes. The absorbance is measured at 405 nm in an Envision multilabel reader and the amount of acylated ghrelin is calculated according to a acylated ghrelin standard curve provided in the same plate.
The analysis of the data is performed by calculation of the percentage of acyl-ghrelin produced in the presence of test compound compared to the amount of acyl-ghrelin produced in the vehicle control samples. An inhibitor of the GOAT enzyme will give values between 100% CTL (no inhibition) and 0% CTL (complete inhibition).
IC50 values are calculated with Assay Explorer or other suited software based on curve fitting of results of 8 different compound concentrations.
For Cc1nc2nonc2c(N)c1CN1CCC(C(F)F)CC1 [Example 1.1, 6-{[4-(Difluoromethyl)piperidin-1-yl]methyl}-5-methyl-[1,2,5]oxadiazolo[3,4-b]pyridin-7-amine], the IC50 was 1.3 nM. Work on Cc1nc2nonc2c(N)c1CN1CCC(C#N)CC1 [Example 1.2] yielded an IC50 of 3.6 nM. Cc1nc2nonc2c(N)c1CN1CCC(S(C)(=O)=O)CC1 [Example 1.3] gave an IC50 of 4.1 nM. For Cc1nc2nonc2c(N)c1CN1CCC(OC(F)(F)F)CC1 [Example 1.4], the IC50 was 0.56 nM. Cc1nc2nonc2c(N)c1CN1CCN(C(=O)OC(C)(C)C)CC1 [Example 1.5, tert-Butyl 4-({7-amino-5-methyl-[1,2,5]oxadiazolo[3,4-b]pyridin-6-yl}methyl)piperazine-1-carboxylate] showed an IC50 of 0.43 nM. Cc1nc2nonc2c(N)c1CN1CC(C(F)(F)F)C1 [Example 1.6] gave an IC50 of 1.9 nM. For Cc1nc2nonc2c(N)c1CN1CCC(C(F)(F)F)C1 (centres unmarked) [Example 1.7], the IC50 was 0.56 nM. Cc1nc2nonc2c(N)c1CN1CCC(c2cccc(C(F)(F)F)c2)C1 (centres unmarked) [Example 1.8] showed an IC50 of 1.4 nM. Cc1nc2nonc2c(N)c1CN1CCC(O)(C(F)(F)F)C1 (centres unmarked) [Example 1.9] gave an IC50 of 1.1 nM. Work on Cc1nc2nonc2c(N)c1CN1CCC(C(C)(C)O)C1 (centres unmarked) [Example 1.11] yielded an IC50 of 5 nM. In the case of Cc1nc2nonc2c(N)c1CN1CCC(F)(F)C1 [Example 1.12], the IC50 is reported as 7 nM. Cc1nc2nonc2c(N)c1CN1CCN(S(C)(=O)=O)CC1 [Example 1.13] showed an IC50 of 5.2 nM. For Cc1nc2nonc2c(N)c1CN1CCN(C(=O)C(F)(F)F)CC1 [Example 2.1, 1-[4-({7-Amino-5-methyl-[1,2,5]oxadiazolo[3,4-b]pyridin-6-yl}methyl)piperazin-1-yl]-2,2,2-trifluoroethan-1-one], the IC50 was 5.7 nM. Cc1nc2nonc2c(N)c1CN1CCN(S(=O)(=O)C(F)(F)F)CC1 [Example 2.2] was tested, and the IC50 was 0.64 nM. Compound Cc1nc2nonc2c(N)c1CN1CCN(C(=O)C2CC2)CC1 [Example 2.3] has an IC50 of 4.2 nM. Cc1nc2nonc2c(N)c1CN1CCN(S(=O)(=O)C2CC2)CC1 [Example 2.4] gave an IC50 of 1.8 nM. With COC(=O)N1CCN(Cc2c(C)nc3nonc3c2N)CC1 [Example 2.5] the IC50 was 6.5 nM. Cc1nc2nonc2c(N)c1CN1CCN(S(=O)(=O)C(F)F)CC1 [Example 2.6] gave an IC50 of 0.49 nM. For Cc1nc2nonc2c(N)c1CN1CCCC(F)(F)C1 [Example 3.1, 6-(3,3-Difluoro-piperidin-1-ylmethyl)-5-methyl-[1,2,5]oxadiazolo[3,4-b]pyridin-7-ylamine], the IC50 was 7.4 nM. Cc1nc2nonc2c(N)c1CN1CCC(F)(F)CC1 [Example 3.2] gave an IC50 of 2.2 nM. Compound Cc1nc2nonc2c(N)c1CN1CCCC(C(F)(F)F)C1 (centres unmarked) [Example 3.3] has an IC50 of 1.7 nM. Cc1nc2nonc2c(N)c1CN1CCC(C(F)(F)F)CC1 [Example 3.4] was tested, and the IC50 was 1.3 nM. With Cc1nc2nonc2c(N)c1CN1CCOC(C)(c2ccc(F)cc2)C1 (centres unmarked) [Example 3.5] the IC50 was 4 nM.
